According to US20240342265A1, “E PROTEIN-MUTATED WEST NILE VIRUS USED AS LIVE[…] AND ONCOLYTIC DRUG FOR CANCER THERAPY” (priority 2023, published 2024):

Columns and labels:
[1] = tested on: Neuro-2a cells (mouse-derived neuroblastoma); test: Bilateral mouse neuroblastoma model in A/JGpt mice, right-side intratumoral injection; assay type: in vivo
Description: Mouse-derived neuroblastoma cells (Neuro-2a cells, 1×10^8/0.1 ml/mouse) were inoculated into the bilateral lumbar region of A/JGpt female mice (SPF grade 5-week-old). When the diameter of subcutaneous tumor nodules reached 5-6 mm (about 50-100 mm^3), mice were randomly divided into groups per the <10% of tumor volume. The DS1-M2-1 was injected intratumorally only into the right-side tumor on day one.
During the test period, the body weight of each mouse was normal. […] Since the left-side tumor is the non-administered side, it is considered that the effect of DS1-M2-1 on the left-side tumor is a result of the immunotherapy effect.

[2] = tested on: SH-SY5Y cells (human neuroblastoma); test: Human neuroblastoma xenograft model in BALB/c nude mice; assay type: in vivo; settings: Adriamycin group
Description: The attenuated WNV was tested for oncolytic virus activity. Under aseptic conditions, SH-SY5Y cells (4×106/0.1 ml/per mouse) were inoculated into the right flank region of SPF-grade BALB/c nude mice aged 8 to 10 weeks to establish a human neuroblastoma xenograft model. When the diameter of the subcutaneous tumor nodules reached 5˜6 mm (corresponding to a tumor volume of approximately 50 mm3˜100 mm3), the mice were randomly divided into groups ensuring that the difference in tumor volume between groups was <10%. Grouping and management information are as described in Table 4. The day of the first administration was recorded as D1.
The half-effective dose is 421 PFU.

[3] = Doxorubicin-Hydro group, left tumor
[4] = Doxorubicin-Hydro group, right tumor

| Structure (SMILES) | Max % TGITV, L ([1]; Taxol 20 mg/kg, left tumor) | No. of mice with tumor completely eliminated, No./Total, L ([1]; Taxol 20 mg/kg, left tumor) | Max % TGITV, R ([1]; Taxol 20 mg/kg, right tumor) | No. of mice with tumor completely eliminated, No./Total, R ([1]; Taxol 20 mg/kg, right tumor) | % T/C [2] | % TGITV [2] | % TGITW [2] | Tumor Volume (mm^3) Day 31 [2] | Tumor Weight [2] | Max % TGITV, L [1, 3] | No. of mice with tumor completely eliminated, D 22, L [1, 3] | No. of mice with tumor completely eliminated, No./Total, L [1, 3] | Max % TGITV, R [1, 4] | No. of mice with tumor completely eliminated, D 18, R [1, 4] | No. of mice with tumor completely eliminated, D 22, R [1, 4] | No. of mice with tumor completely eliminated, No./Total, R [1, 4] |
| --- | --- | --- | --- | --- | --- | --- | --- | --- | --- | --- | --- | --- | --- | --- | --- | --- |
| CC(=O)O[C@H]1C(=O)[C@@]2(C)[C@H]([C@H](OC(=O)c3ccccc3)[C@]3(O)C[C@H](OC(=O)[C@H](O)[C@@H](NC(=O)c4ccccc4)c4ccccc4)C(C)=C1C3(C)C)[C@]1(OC(C)=O)CO[C@@H]1C[C@@H]2O [Taxol, paclitaxel] | 50.74% | 0/4 | 46.73% | 0/4 |  |  |  |  |  |  |  |  |  |  |  |  |
| COc1cccc2c1C(=O)c1c(O)c3c(c(O)c1C2=O)C[C@@](O)(C(=O)CO)C[C@@H]3O[C@H]1C[C@H](N)[C@H](O)[C@H](C)O1 [Adriamycin, doxorubicin] |  |  |  |  | 37.43% | 63.27% | 53.12% | 468.07 ± 145.59 mm^3 | 0.406 ± 0.157 g | 84.23% | 3 | 3/10 | 83.25% | 1 | 2 | 3/10 |
